In the supplement of paper PMC10307832:

Columns and labels:
Assay in all cases: relative viability (nuclei count vs DMSO), 5 days (fraction); higher = more cells survive
[1] = compound: O=c1[nH]cc(F)c(=O)[nH]1 [5-Fluorouracil] + CC(C)C[C@H](NC(=O)[C@H](Cc1ccccc1)NC(=O)c1cnccn1)B(O)O [Bortezomib] (partner 0.002 µM)
Procedure, shortened: (§1)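 Nuclei were stained with Hoechst during a one-step fixation (final 0.05% Triton X-100, 1% formaldehyde, 1 ug/ml Hoechst) carried out 5 days after dosing, then counted on 4× images. The cells, lung cancer lines in 1536-well plates, had been dosed by pin tool the day after seeding with one drug alone or a fixed anchor-drug dose plus five library-drug doses (not always all listed) in √10 steps. Relative viability is the nuclei count in treated wells divided by that in vehicle wells, and each value is the median of duplicate plates.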

[2] = compound: O=c1[nH]cc(F)c(=O)[nH]1 [5-Fluorouracil] + CC(=O)Nc1cccc(-n2c(=O)n(C3CC3)c(=O)c3c(Nc4ccc(I)cc4F)n(C)c(=O)c(C)c32)c1 [Trametinib] (partner 0.02 µM)
Procedure, shortened: as §1

[3] = compound: CC1=C(CC(=O)O)c2cc(F)ccc2/C1=C\c1ccc([S+](C)[O-])cc1 [Sulindac] + Nc1ncn([C@H]2C[C@H](O)[C@@H](CO)O2)c(=O)n1 [Decitabine] (partner 2 µM)
Procedure, shortened: as §1

[4] = compound: CN[C@@H]1C[C@H]2O[C@@](C)([C@@H]1OC)n1c3ccccc3c3c4c(c5c6ccccc6n2c5c31)C(=O)NC4 [Staurosporine] + Cc1nc(Nc2ncc(C(=O)Nc3c(C)cccc3Cl)s2)cc(N2CCN(CCO)CC2)n1 [Dasatinib] (partner 0.075 µM)
Procedure, shortened: as §1

Cell Line	relative viability ([1]; first compound 0.02 µM)	relative viability ([1]; first compound 0.2 µM)	relative viability ([1]; first compound 0.6325 µM)	relative viability ([1]; first compound 2 µM)	relative viability ([2]; first compound 0.02 µM)	relative viability ([2]; first compound 0.2 µM)	relative viability ([2]; first compound 0.6325 µM)	relative viability ([2]; first compound 2 µM)	relative viability ([3]; first compound 0.08 µM)	relative viability ([3]; first compound 0.253 µM)	relative viability ([3]; first compound 0.8 µM)	relative viability ([3]; first compound 2.53 µM)	relative viability ([3]; first compound 8 µM)	relative viability ([4]; first compound 0.005 µM)	relative viability ([4]; first compound 0.01581 µM)	relative viability ([4]; first compound 0.05 µM)	relative viability ([4]; first compound 0.1581 µM)	relative viability ([4]; first compound 0.5 µM)
HCC-44	0.931	0.84	0.601	0.35	1.09	1	0.692	0.599	0.976	0.909	0.871	0.918	0.961	–	–	–	–	–
HCC-78	0.471	0.546	0.525	0.274	1.01	0.717	0.435	0.297	0.652	0.672	0.597	0.653	0.648	0.357	0.295	0.339	0.26	0.264
COR-L23	1.04	0.85	0.41	0.221	0.585	0.631	0.359	0.275	0.436	0.446	0.425	0.421	0.526	0.309	0.186	0.17	0.112	0.0512
NCI-H2009	1.04	1.01	0.722	0.463	0.255	0.271	0.247	0.215	0.455	0.397	0.371	0.362	0.359	0.197	0.158	0.152	0.153	0.116
NCI-H3122	0.998	0.897	0.353	0.298	0.232	0.296	0.187	0.176	0.409	0.385	0.352	0.435	0.439	0.861	–	0.756	0.232	0.0614
NCI-H2228	1.03	0.911	0.811	0.442	0.628	0.685	0.441	0.326	–	–	–	–	–	0.328	0.245	0.232	0.069	0.0624
NCI-H1944	–	–	–	–	0.412	0.333	0.244	0.195	0.489	0.44	0.412	0.426	0.449	0.212	0.271	0.203	0.172	0.134
NCI-H1648	–	–	–	–	0.467	0.405	0.466	0.306	0.641	0.558	–	0.462	0.452	–	–	–	–	–
NCI-H358	–	–	–	–	0.17	0.124	0.123	0.137	0.235	0.2	0.196	0.186	0.239	0.373	0.072	0.178	0.0752	0.0597
NCI-H1755	0.975	0.442	0.397	0.311	0.796	0.688	0.417	0.37	0.798	0.634	0.705	0.785	0.833	0.229	0.206	0.149	–	0.169
A-427	0.888	1.07	0.986	0.532	0.747	0.773	0.58	0.382	0.469	0.521	0.552	0.52	0.6	0.5	0.206	0.183	0.0891	0.128
PC-14	0.876	0.897	0.818	0.516	0.837	0.734	0.81	0.456	0.25	0.274	0.223	0.215	0.257	0.0423	0.0358	0.0229	0.0364	0.0239
ABC-1	0.251	0.274	0.361	0.375	–	–	–	–	1.04	1.09	1.02	0.821	1.16	0.341	0.193	0.167	0.109	0.139
NCI-H1563	0.895	0.859	0.841	0.718	–	–	–	–	–	–	–	–	–	0.43	0.434	0.411	0.247	0.433
NCI-H2342	–	–	–	–	0.932	0.762	0.843	0.662	0.681	0.706	0.591	0.648	0.786	0.297	0.243	0.26	0.234	0.27
NCI-H1793	–	–	–	–	0.398	0.49	0.373	0.38	0.406	0.521	–	0.486	0.588	0.457	–	0.302	0.141	0.144
NCI-H522	–	–	–	–	0.76	0.681	0.724	0.638	0.643	0.718	0.652	0.667	0.687	1.08	–	0.743	0.497	0.527
CAL-12T	1.13	1.05	0.911	0.751	0.424	0.393	0.33	0.299	–	–	–	–	–	0.14	0.0881	0.0772	0.107	0.0737
SK-MES-1	–	–	–	–	0.496	0.552	0.381	0.352	0.378	0.418	0.304	0.436	0.386	0.21	0.22	0.154	0.126	0.106
EBC-1	0.64	0.553	0.619	0.477	–	–	–	–	–	–	–	–	–	–	–	–	–	–
LK-2	–	–	–	–	0.713	0.769	0.633	0.453	0.334	0.361	0.277	0.239	0.306	0.551	–	0.271	0.139	0.121
IA-LM	0.766	0.327	0.193	0.141	–	–	–	–	–	–	–	–	–	–	–	–	–	–
NCI-H1395	–	–	–	–	1.03	0.987	1.12	1.11	0.726	0.689	0.664	0.659	0.832	0.377	0.306	0.383	0.299	0.247
